Reference: patent US20250325687A1, “CONJUGATE COMPRISING TOLL-LIKE RECEPTOR AGONIST” (MABSOFT THERAPEUTICS (SHANGHAI) CO., LTD., priority 2022, published 2025)

Tests used:
Format in all cases: cell-based
[1] = target: T1, hTLR7 (human Toll-like receptor 7) (Homo sapiens, UniProt Q9NYK1); test: hTLR7 cell assay (HEK-Blue hTLR7 reporter cells); settings: 24 hours, OD 650 nm
T1 construct: host or cells: HEK-Blue hTLR7 (HEK293-derived reporter cells)
T1 sequence (Q9NYK1 27-1049): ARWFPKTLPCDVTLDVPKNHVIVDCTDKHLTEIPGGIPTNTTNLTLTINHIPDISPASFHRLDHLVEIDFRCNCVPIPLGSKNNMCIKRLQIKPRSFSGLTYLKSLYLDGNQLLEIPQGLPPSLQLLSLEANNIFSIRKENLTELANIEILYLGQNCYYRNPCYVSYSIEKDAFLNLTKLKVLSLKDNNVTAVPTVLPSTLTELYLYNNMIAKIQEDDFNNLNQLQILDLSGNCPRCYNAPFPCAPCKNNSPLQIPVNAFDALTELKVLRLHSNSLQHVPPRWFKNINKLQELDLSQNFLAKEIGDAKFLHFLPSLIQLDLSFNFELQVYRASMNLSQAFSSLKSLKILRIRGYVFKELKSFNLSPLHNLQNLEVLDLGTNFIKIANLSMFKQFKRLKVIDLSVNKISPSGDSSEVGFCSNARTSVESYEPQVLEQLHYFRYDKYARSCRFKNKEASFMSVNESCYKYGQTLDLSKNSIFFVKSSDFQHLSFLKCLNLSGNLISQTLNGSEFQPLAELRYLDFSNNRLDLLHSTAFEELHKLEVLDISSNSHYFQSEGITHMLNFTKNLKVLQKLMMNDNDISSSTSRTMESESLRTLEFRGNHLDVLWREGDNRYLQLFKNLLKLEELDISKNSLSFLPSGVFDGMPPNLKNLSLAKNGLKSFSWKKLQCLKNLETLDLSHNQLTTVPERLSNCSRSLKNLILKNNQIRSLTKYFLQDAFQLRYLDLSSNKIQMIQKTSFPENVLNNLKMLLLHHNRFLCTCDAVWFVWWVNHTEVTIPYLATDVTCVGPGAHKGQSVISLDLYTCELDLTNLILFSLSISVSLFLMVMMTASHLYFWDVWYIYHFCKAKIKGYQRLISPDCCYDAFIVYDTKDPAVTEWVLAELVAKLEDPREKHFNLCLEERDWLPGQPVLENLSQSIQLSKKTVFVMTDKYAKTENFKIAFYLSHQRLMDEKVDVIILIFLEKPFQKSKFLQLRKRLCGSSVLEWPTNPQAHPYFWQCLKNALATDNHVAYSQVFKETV
Procedure, shortened: (§1)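 HEK-Blue reporter cells in HEK-Blue Detection medium (50000 cells/mL) were exposed to test compounds for 24 hours at 37° C, 5% CO2. Agonism was read from supernatant incubated 1 hour at 37° C with QUANTI-Blue, measured as optical density at 650 nm.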

[2] = target: T2, hTLR8 (human Toll-like receptor 8) (Homo sapiens, UniProt Q9NR97); test: hTLR8 cell assay (HEK-Blue hTLR8 reporter cells); settings: 24 hours, OD 650 nm
T2 construct: host or cells: HEK-Blue hTLR8 (HEK293-derived reporter cells)
T2 sequence (Q9NR97 27-1041): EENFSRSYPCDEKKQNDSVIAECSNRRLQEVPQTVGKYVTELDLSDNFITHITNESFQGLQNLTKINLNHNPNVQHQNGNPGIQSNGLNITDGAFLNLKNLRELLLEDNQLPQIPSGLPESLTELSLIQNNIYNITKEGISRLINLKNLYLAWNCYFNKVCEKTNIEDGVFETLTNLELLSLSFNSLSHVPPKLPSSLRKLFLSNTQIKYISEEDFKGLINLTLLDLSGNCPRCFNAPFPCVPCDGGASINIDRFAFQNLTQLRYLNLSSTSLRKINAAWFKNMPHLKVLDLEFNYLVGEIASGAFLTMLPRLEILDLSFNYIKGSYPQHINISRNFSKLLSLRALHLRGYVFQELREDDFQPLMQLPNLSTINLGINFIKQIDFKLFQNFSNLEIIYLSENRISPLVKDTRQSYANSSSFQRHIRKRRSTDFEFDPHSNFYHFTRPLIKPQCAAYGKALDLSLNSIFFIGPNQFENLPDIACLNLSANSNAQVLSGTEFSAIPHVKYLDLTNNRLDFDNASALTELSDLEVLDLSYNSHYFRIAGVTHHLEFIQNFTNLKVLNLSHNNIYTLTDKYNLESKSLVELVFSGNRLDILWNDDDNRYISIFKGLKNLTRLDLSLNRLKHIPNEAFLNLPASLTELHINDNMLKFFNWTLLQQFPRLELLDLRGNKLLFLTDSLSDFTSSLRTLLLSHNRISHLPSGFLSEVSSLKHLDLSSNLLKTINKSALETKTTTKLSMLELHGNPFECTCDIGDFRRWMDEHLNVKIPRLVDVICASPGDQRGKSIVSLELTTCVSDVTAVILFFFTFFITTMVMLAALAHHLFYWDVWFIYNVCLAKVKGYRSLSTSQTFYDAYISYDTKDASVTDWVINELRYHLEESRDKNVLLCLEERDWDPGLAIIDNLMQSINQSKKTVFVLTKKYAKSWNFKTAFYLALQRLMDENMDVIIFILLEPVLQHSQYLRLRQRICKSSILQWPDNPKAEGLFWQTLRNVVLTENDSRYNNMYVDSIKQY
Procedure, shortened: as §1

[3] = tested on: human PBMC (human peripheral blood mononuclear cells); test: PBMC screening assay: induction of TNF-α production; settings: human PBMC, 24 hours, TNF-α by ELISA; class symbols; read-out: EC50 (μM) TNF-α (hPBMC)
Procedure, shortened: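 Human PBMC were rested for 24 h, then treated in duplicate with compound at 2.54 nM to 50 μM for 24 h at 37 °C. Secreted TNF-α in the cleared supernatant was quantified by ELISA, read at OD 450 nm.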

SMILES | EC50 [1] | EC50 [2] | EC50 [3]
CCCCc1nc2c(N)nc3cc(Cc4ccc(CN)s4)ccc3c2n1CC(C)(C)O [Compound 69, 1-(4-amino-7-((5-(aminomethyl)thiophen-2-yl)methyl)-2-butyl-1H-imidazo[4,5-c]quinolin-1-yl)-2-methylpropan-2-ol] | < 1000 nM | < 5000 nM | < 0.64 µM
CCCCc1nc2c(N)nc3cc(Cc4ccc(C(C)(C)CN)cc4)ccc3c2n1CC(C)(C)O [Compound 70, 1-(4-amino-7-(4-(1-amino-2-methylpropan-2-yl)benzyl)-2-butyl-1H-imidazo[4,5-c]quinolin-1-yl)-2-methylpropan-2-ol] | < 1000 nM | < 5000 nM | < 0.64 µM
CCCCc1nc2c(N)nc3cc(Cc4ccccc4CN)ccc3c2n1CC(C)(C)O [Compound 71, 1-(4-amino-7-(2-(aminomethyl)benzyl)-2-butyl-1H-imidazo[4,5-c]quinolin-1-yl)-2-methylpropan-2-ol] | 1000 to 10000 nM | < 5000 nM | > 0.64 µM
CCOCc1nc2c(N)nc3cc(Cc4ccc(CN)s4)ccc3c2n1CC(C)(C)O [Compound 147, 1-(4-amino-7-((5-(aminomethyl)thiophen-2-yl)methyl)-2-(ethoxymethyl)-1H-imidazo[4,5-c]quinolin-1-yl)-2-methylpropan-2-ol] | < 1000 nM | < 5000 nM | < 0.64 µM
CCOCc1nc2c(N)nc3cc(Cc4cc(CN)ccc4F)ccc3c2n1CC(C)(C)O [Compound 148, 1-(4-amino-7-(5-(aminomethyl)-2-fluorobenzyl)-2-(ethoxymethyl)-1H-imidazo[4,5-c]quinolin-1-yl)-2-methylpropan-2-ol] | < 1000 nM | < 5000 nM | < 0.64 µM
CCOCc1nc2c(N)nc3cc(Cc4ccc(F)c(CN)c4)ccc3c2n1CC(C)(C)O [Compound 149] | < 1000 nM | < 5000 nM | < 0.64 µM
CCOCc1nc2c(N)nc3cc(Cc4cccc(CNC(=O)CN)c4)ccc3c2n1CC(C)(C)O [Compound 150, 2-amino-N-(3-((4-amino-2-(ethoxymethyl)-1-(2-hydroxy-2-methylpropyl)-1H-imidazo[4,5-c]quinolin-7-yl)methyl)benzyl)acetamide] | 1000 to 10000 nM | < 5000 nM | < 0.64 µM

The next lines start with results.

EC50 [1] | EC50 [2] | SMILES | EC50 [3]
1000 to 10000 nM | < 5000 nM | CCOCc1nc2c(N)nc3cc(Cc4cccc(C(=O)NCCN)c4)ccc3c2n1CC(C)(C)O [Compound 151, 3-((4-amino-2-(ethoxymethyl)-1-(2-hydroxy-2-methylpropyl)-1H-imidazo[4,5-c]quinolin-7-yl)methyl)-N-(2-aminoethyl)benzamide] | < 0.64 µM
< 1000 nM | < 5000 nM | CCOCc1nc2c(N)nc3cc(Cc4ccc5c(c4)CCNC5)ccc3c2n1CC(C)(C)O [Compound 152, 1-(4-amino-2-(ethoxymethyl)-7-((1,2,3,4-tetrahydroisoquinolin-6-yl)methyl)-1H-imidazo[4,5-c]quinolin-1-yl)-2-methylpropan-2-ol] | < 0.64 µM
< 1000 nM | < 5000 nM | CCOCc1nc2c(N)nc3cc(Cc4cccc(N5CCNCC5)c4)ccc3c2n1CC(C)(C)O [Compound 153, 1-(4-amino-2-(ethoxymethyl)-7-(3-(piperazin-1-yl)benzyl)-1H-imidazo[4,5-c]quinolin-1-yl)-2-methylpropan-2-ol] | < 0.64 µM
